For seven compounds, EC50, Concentration and VR results are on record in ChEMBL document CHEMBL1124205, “Synthesis and antiviral evaluation of 6'-substituted aristeromycins: potential mechanism-based inhibitors of S-adenosylhomocysteine hydrolase” (J Med Chem, 1988).

Assay [1] relates to Human alphaherpesvirus 2. The assay is described as follows: Concentration at which 50% of the herpes simplex virus type 2 […] (F) induced cytopathic effect are inhibited is determined. It is filed as functional. To be noted: read-out: ED50 (the source's name). (Cytopathic effects are the visible damage that an infection or toxin causes in cultured cells.)
In the next assay the test system is HEp-2. The assay is described as follows: Cytotoxic concentration against HEP-2 cells. It is filed as functional, cell-based. The note with it: Homo sapiens.
Assay [2] has as its system Vaccinia virus. The assay is described as follows: Antiviral activity against vaccinia virus in HEP -2 cells. In kind it is functional, Orthopoxvirus vaccinia.
The subject of assay [3] is Human alphaherpesvirus 2. As to the kind of experiment: Antiviral activity against herpes simplex virus type 2 HSV-2 (F) expressed as viral rating (VR). It is filed as functional.
Assay [4] relates to Vaccinia virus. To be noted: read-out: ED50.
The test system of assay [5] is Human alphaherpesvirus 1. The assay is described as follows: Antiviral activity against herpes simplex virus type 1 HSV-1 (F) expressed as viral rating (VR). In kind it is functional.
The subject of assay [6] is Human alphaherpesvirus 1. The assay is described as follows: Concentration at which 50% of the herpes simplex virus type 1 HSV-1 (F) induced cytopathic effect are inhibited is determined. The note with it: read-out: ED50 (the source's name). In kind it is functional.
Assay [7] deals with Vaccinia virus. As to the kind of experiment: Inhibition of vaccinia virus induced cytopathic effects in HEP -2 cells. It is filed as functional. To be noted: Orthopoxvirus vaccinia, read-out: ED50 (the source's name).

For `Nc1ncnc2c1ncn2[C@@H](C=O)O[C@@H](C=O)CO`, the EC50 in the assay on Human alphaherpesvirus 2 [1] is more than 3200 µM; in the assay on Vaccinia virus [4], 0.5 µM. Moreover, the Concentration with HEp-2 was determined as 100 µM. The VR in the assay with Vaccinia virus [2] was 1.3; in the assay with Human alphaherpesvirus 2 [3], 0.
Regarding `Nc1ncnc2c1ncn2C1C(O)C(O)C(CO)C1O` (stereo not drawn), the VR with Human alphaherpesvirus 1 [5] came out at 0.6; in the assay with Vaccinia virus [2], 0.8; in the assay with Human alphaherpesvirus 2 [3], 0.3. For the same compound, the EC50 was 100 µM in the assay with Human alphaherpesvirus 2 [1], 100 µM in the assay on Human alphaherpesvirus 1 [6] and 18 µM in the assay with Vaccinia virus [4]. The Concentration in the assay with HEp-2 is more than 320 µM.
Consider `Nc1ncnc2c1ncn2C1C(O)C(F)C(CO)C1O` (stereo not drawn), for which the VR in the assay on Human alphaherpesvirus 1 [5] and in the assay on Human alphaherpesvirus 2 [3] was 0 each time. Further, the EC50 with Human alphaherpesvirus 2 [1] and in the assay on Human alphaherpesvirus 1 [6] was 225 µM throughout. Moreover, the Concentration in the assay on HEp-2 was found to be 225 µM.
As for `Nc1ncnc2c1ncn2[C@H]1[C@H](O)[C@H](O)[C@@H](CO)[C@H]1F`, the VR in the assay on Human alphaherpesvirus 1 [5] is 0.4; in the assay with Vaccinia virus [2], 0.8; in the assay on Human alphaherpesvirus 2 [3] it was 0.4. Moreover, the EC50 in the assay with Human alphaherpesvirus 2 [1] stood at 10 µM; in the assay on Vaccinia virus [7], 0.5 µM; with Human alphaherpesvirus 1 [6] it was 10 µM. In the assay with HEp-2, this compound gave a Concentration of 320 µM.
Consider `Nc1ncnc2c1ncn2[C@H]1[C@H](O)[C@H](O)[C@@H](CO)[C@@H]1F`, for which the VR in the assay on Human alphaherpesvirus 1 [5] is recorded as 0.1; in the assay on Vaccinia virus [2], 0.4; with Human alphaherpesvirus 2 [3], 0.1. Moreover, the EC50 with Human alphaherpesvirus 2 [1] worked out at 90 µM; in the assay on Human alphaherpesvirus 1 [6], 90 µM; with Vaccinia virus [4] it was 63 µM. This compound also gave a Concentration in the assay with HEp-2 of more than 320 µM.
On to `Nc1nc2c(ncn2COC(CO)CO)c(=O)[nH]1` [GANCICLOVIR], for which the VR amounted to 1.4 in the assay with Human alphaherpesvirus 1 [5] and 1.6 in the assay with Human alphaherpesvirus 2 [3]. Further, the EC50 is 1 µM in the assay on Human alphaherpesvirus 2 [1] and less than 1 µM in the assay with Human alphaherpesvirus 1 [6]. In the assay on HEp-2, this compound gave a Concentration of more than 3200 µM.
With `C=C1C(CO)C(O)C(O)C1n1cnc2c(N)ncnc21` (stereo not drawn), the values for the VR with Human alphaherpesvirus 1 [5], in the assay on Vaccinia virus [2] and in the assay on Human alphaherpesvirus 2 [3] were 0, 0.9 and 0.3, respectively. In addition, the figures for the EC50 with Human alphaherpesvirus 2 [1], with Human alphaherpesvirus 1 [6] and with Vaccinia virus [4] were 5 µM, 16 µM and 0.55 µM, respectively. In addition, the Concentration in the assay with HEp-2 stood at 50 µM.
